Read-outs that look alike come from different tables or passages of the source.
How the values were obtained:
Format in all cases: in vivo
[1] = tested on: Beet Armyworm (Spodoptera exigua, LAPHEG); experiment: Bioassays on Beet Armyworm (BAW), 128-well diet tray assay; conditions: Spodoptera exigua, read-out: BAW
In short: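 Second-instar larvae, one to five per well, were placed on artificial diet surface-treated with 50 μg/cm^2 compound in 90:10 acetone-water, eight wells per treatment. Trays were held 5–7 days at 25 °C, 14:10 light-dark. Percent mortality per well was averaged over eight wells.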

[2] = tested on: Cabbage Looper (Trichoplusia ni, TRIPNI); experiment: Bioassays on Cabbage Looper (CL), 128-well diet tray assay; conditions: Trichoplusia ni, read-out: CL
In short: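 Diet tray, 2nd instar, 1–5 larvae/well; 50 μg/cm^2 compound surface-applied (acetone:water 90:10), dried; 8 wells/treatment; 25° C, 14:10 L:D, 5–7 d; % mortality, mean of 8 wells.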

[3] = tested on: Green Peach Aphid (Myzus persicae, MYZUPE); experiment: Bioassays on Green Peach Aphid (GPA), foliar spray on cabbage seedlings; conditions: 72 h, read-out: GPA
In short: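 Percent control (Abbott-corrected versus solvent-sprayed plants) comes from live-aphid counts three days after treatment at about 25° C. Test solution at 200 ppm was sprayed to runoff onto both leaf surfaces of cabbage seedlings infested a day earlier with 20-50 aphids; four replicate pots.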

[4] = tested on: Yellow Fever Mosquito (Aedes aegypti, AEDSAE)
In short: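 Compounds from DMSO master plates (4000 ppm stock) diluted in 90:10 water/acetone, then dispensed into six replicate plates and infested with ~1-day-old Aedes aegypti larvae in liver-powder water. Held covered at room temperature for 3 days; each well scored for larval mortality and graded on a rating scale.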

[5] = Table ABC: Biological Results, species BAW
[6] = Table ABC: Biological Results, species CL
[7] = Table ABC: Biological Results, species GPA
[8] = Table ABC: Biological Results, species YFM
[9] = Green Peach Aphid, rating class
[10] = Yellow Fever Mosquito, rating class

Row | SMILES | pest or weed control at 50 µg/cm2 [1, 5] [%] | pest or weed control at 50 µg/cm2 [2, 6] [%] | pest or weed control at 200 µg/mL [3, 7] [%] | YFM [4, 8] | pest or weed control at 50 µg/cm2 ([1]; Beet Armyworm, rating class) [%] | pest or weed control at 50 µg/cm2 ([2]; Cabbage Looper, rating class) [%] | pest or weed control at 200 µg/mL [3, 9] [%] | YFM [4, 10]
1 | O=C(Nc1cc(NC(=O)C(F)(F)F)c(F)cc1F)c1cc(NC(=O)[C@H]2[C@H](c3ccc(Cl)c(Cl)c3)C2(Cl)Cl)ccc1Cl [F1245, 2-Chloro-5-((1R,3R)-2,2-dichloro-3-(3,4-dichlorophenyl)cyclopropane-1-carboxamido)-N-(2,4-difluoro-5-(2,2,2-trifluoroacetamido)phenyl)benzamide] | 50 to 100 | 50 to 100 | 0 to 80 | A (80–100) |  |  |  | 
2 | CC(=O)Nc1cc(NC(=O)c2cc(NC(=O)[C@H]3[C@H](c4ccc(Cl)c(Cl)c4)C3(Cl)Cl)ccc2Cl)c(F)cc1F [F1246, N-(5-Acetamido-2,4-difluorophenyl)-2-Chloro-5-((1R,3R)-2,2-dichloro-3-(3,4-dichlorophenyl)cyclopropane-1-carboxamido)benzamide] | 50 to 100 | 50 to 100 | 80 to 100 | A (80–100) |  |  |  | 
3 | Nc1ccc(F)c(NC(=O)c2cc(NC(=O)[C@H]3[C@H](c4ccc(F)c(Cl)c4)C3(Cl)Cl)ccc2Cl)c1F [F1247, N-(3-Amino-2,6-difluorophenyl)-2-chloro-5-((1R,3R)-2,2-dichloro-3-(3-chloro-4-fluorophenyl)cyclopropane-1-carboxamido)benzamide] | 50 to 100 | 50 to 100 | 80 to 100 | A (80–100) |  |  |  | 
4 | O=C(Nc1ccc(F)c(NC(=O)C(F)(F)Cl)c1F)c1cc(NC(=O)[C@H]2[C@H](c3ccc(Cl)c(Cl)c3)C2(Cl)Cl)ccc1Cl [F1248, 2-Chloro-N-(3-(2-chloro-2,2-difluoroacetamido)-2,4-difluorophenyl)-5-((1R,3R)-2,2-dichloro-3-(3,4-dichlorophenyl)cyclopropane-1-carboxamido)benzamide] | 50 to 100 | 50 to 100 | 80 to 100 | A (80–100) |  |  |  | 
5 | Nc1ccc(F)c(NC(=O)c2cc(NC(=O)[C@H]3[C@H](c4ccc(Cl)c(Cl)c4)C3(Cl)Cl)ccc2Cl)c1F [F1250, N-(3-Amino-2,6-difluorophenyl)-2-chloro-5-((1R,3R)-2,2-dichloro-3-(3,4-dichlorophenyl)cyclopropane-1-carboxamido)benzamide] | 50 to 100 | 50 to 100 | 80 to 100 | A (80–100) |  |  |  | 
6 | O=C(Nc1ccc(F)c(NC(=O)C(F)(F)C(F)(F)F)c1F)c1cc(NC(=O)[C@H]2[C@H](c3ccc(Cl)c(Cl)c3)C2(Cl)Cl)ccc1Cl [F1251, 2-Chloro-5-((1R,3R)-2,2-dichloro-3-(3,4-dichlorophenyl)cyclopropane-1-carboxamido)-N-(2,4-difluoro-3-(2,2,3,3,3-pentafluoropropanamido)phenyl)benzamide] | 50 to 100 | 50 to 100 | 0 to 80 | A (80–100) |  |  |  | 
7 | CCOC(C)C(=O)Nc1c(F)ccc(NC(=O)c2cc(NC(=O)[C@H]3[C@H](c4ccc(F)c(C(F)(F)F)c4)C3(Cl)Cl)ccc2Cl)c1F (stereo partly drawn) [F1364, 2-Chloro-5-((1R,3R)-2,2-dichloro-3-(4-fluoro-3-(trifluoromethyl)phenyl)cyclopropane-1-carboxamido)-N-(3-(2-ethoxypropanamido)-2,4-difluorophenyl)benzamide] | 50 to 100 | 50 to 100 | 0 to 80 | A (80–100) |  |  |  | 
8 | CCC(=O)Nc1c(F)ccc(NC(=O)c2cc(NC(=O)[C@H]3[C@H](c4ccc(F)c(C(F)(F)F)c4)C3(Cl)Cl)ccc2Cl)c1F [F1371, 2-Chloro-5-((1R,3R)-2,2-dichloro-3-(4-fluoro-3-(trifluoromethyl)phenyl)cyclopropane-1-carboxamido)-N-(2,4-difluoro-3-propionamidophenyl)benzamide] | 50 to 100 | 50 to 100 | 0 to 80 | A (80–100) |  |  |  | 
9 | CN(C(=O)C(F)F)c1c(F)ccc(NC(=O)c2cc(NC(=O)[C@H]3[C@H](c4ccc(F)c(C(F)(F)F)c4)C3(Cl)Cl)ccc2Cl)c1F [F1386, 2-Chloro-5-((1R,3R)-2,2-dichloro-3-(4-fluoro-3-(trifluoromethyl)phenyl)cyclopropane-1-carboxamido)-N-(3-(2,2-difluoro-N-methylacetamido)-2,4-difluorophenyl)benzamide] | 50 to 100 | 50 to 100 | 0 to 80 | A (80–100) |  |  |  | 
10 | CN(C(=O)C(F)F)c1c(F)ccc(NC(=O)c2cc(NC(=O)[C@H]3[C@H](c4ccc(F)c(Cl)c4)C3(Cl)Cl)ccc2Cl)c1F [F1460, 2-Chloro-5-((1R,3R)-2,2-dichloro-3-(3-chloro-4-fluorophenyl)cyclopropane-1-carboxamido)-N-(3-(2,2-difluoro-N-methylacetamido)-2,4-difluorophenyl)benzamide] |  |  |  |  | 50 to 100 | 50 to 100 | 80 to 100 | A (80–100)
11 | O=C(Nc1ccc(F)cc1)c1c(Cl)ccc(NC(=O)[C@H]2[C@H](c3ccc(F)c(Cl)c3)C2(Cl)Cl)c1F [F1465, 6-chloro-3-((1R,3R)-2,2-dichloro-3-(3-chloro-4-fluorophenyl)cyclopropane-1-carboxamido)-2-fluoro-N-(4-fluorophenyl)benzamide] |  |  |  |  | 50 to 100 | 50 to 100 | 80 to 100 | A (80–100)
12 | CCCC(=O)Nc1c(F)ccc(NC(=O)c2cc(NC(=O)[C@H]3[C@H](c4ccc(Cl)c(Cl)c4)C3(Cl)Cl)ccc2Cl)c1F [F1473, N-(3-Butyramido-2,4-difluorophenyl)-2-chloro-5-((1R,3R)-2,2-dichloro-3-(3,4-dichlorophenyl)cyclopropane-1-carboxamido)benzamide] |  |  |  |  | 50 to 100 | 50 to 100 | 0 to 80 | A (80–100)
13 | CCCCC(=O)Nc1c(F)ccc(NC(=O)c2cc(NC(=O)[C@H]3[C@H](c4ccc(Cl)c(Cl)c4)C3(Cl)Cl)ccc2Cl)c1F [F1474, 2-Chloro-5-((1R,3R)-2,2-dichloro-3-(3,4-dichlorophenyl)cyclopropane-1-carboxamido)-N-(2,4-difluoro-3-pentanamidophenyl)benzamide] |  |  |  |  | 50 to 100 | 50 to 100 | 0 to 80 | A (80–100)
14 | O=C1CC(C(=O)Nc2c(F)ccc(NC(=O)c3cc(NC(=O)[C@H]4[C@H](c5ccc(Cl)c(Cl)c5)C4(Cl)Cl)ccc3Cl)c2F)C1 [F1475, 2-Chloro-5-((1R,3R)-2,2-dichloro-3-(3,4-dichlorophenyl)cyclopropane-1-carboxamido)-N-(2,4-difluoro-3-(3-oxocyclobutane-1-carboxamido)phenyl)benzamide] |  |  |  |  | 50 to 100 | 50 to 100 | 0 to 80 | A (80–100)

Source: patent US20250228239A1, “MOLECULES HAVING PESTICIDAL UTILITY, AND INTERMEDIATES, COMPOSITIONS, AND PROCESSES, RELATED THERETO” (priority 2024, published 2025)
